Data published in patent publication US20220226473A1, “Nucleic acid nanocarrier drug and preparation method thereof, pharmaceutical composition and application thereof” (BAI YAO ZHI DA (BEIJING) NANOBIO TECHNOLOGY CO., LTD., priority 2018, published 2022).
Like-named read-outs stand apart in the source and are kept apart here.

Legend:
SH-SY5Y cells [1] = experiment: Cytotoxicity in SH-SY5Y cells, CellTiter-Glo (Embodiment 8); format: cell-based
Experimental: (1) Using the RPMI1640+10% FBS+1% PS medium to culture the SH-SY5Y cells at 37 DEG C and 5% CO2.
(2) Collecting the cells, centrifuging at 800 rpm for 5 minutes, resuspending the medium, adjusting the cell concentration, and adding to the 96-well plate in a volume of 5000 cells per 90 μL.
(3) Diluting a sample to be tested with the culture medium on the next day, respectively adding 200 nM to each sample, herein each sample has 4 replicate wells for replication.
(4) After being cultured for 72 hours, adding 100 μL of the CTG reagent to each well, shaking for 2 minutes, and standing at the room temperature for 10 minutes, herein a whole process is protected from light.
(5) Finally using Soft Max Pro5 software to read.

HL60 cells = experiment: Cytotoxicity of RNAh-Bio-670-EPB nanoparticles, CellTiter-Glo; format: cell-based
Experimental: Preparing a freshly prepared reagent into a corresponding volume container, and adding PBS to be quantified to 10 μM.
Cells are cultured at 37 DEG C. and 5% CO2 in a corresponding basal medium in which 10% FBS and 1% PS are respectively added. The cell density used in the experiment is above 80%. The cells are collected, and centrifuged at 1000 rpm for 4 minutes, the medium is resuspended, the cell concentration is adjusted, and it is added to the 96-well plate in a volume of 3000 cells per 50 μL, and each group has 3 replicate wells.
After 24 hours, the compound solution is transferred to each well by 50 μL/well.
The above cells after administration are cultured for 72 hours under a condition of 37 DEG C and 5% CO2.
The well plate is brought to a room temperature in advance and stands for 30 minutes, 100 μL of a CellTiter-Glo® reagent is added to each well of the well plate and mixed for 2 minutes on a shaker to promote cell lysis. The Perkin Elmer Envision 2104 Multilabel Reader is used to read values and the values are recorded.
The acquired experiment data is analyzed and processed by using excel software, and GraphPad Prism 5 software is used for curve fitting analysis.

MOLT4 cells = experiment: Cytotoxicity of RNAh-Bio-670-MTX nanoparticles, CTG; format: cell-based, human
Experimental: 1) Using the RPMI1640+10% FBS+1% PS medium to culture the MOLT4 cells at 37 DEG C. and 5% CO2.
2) Collecting the cells, centrifuging at 800 rpm for 5 minutes, resuspending the medium, adjusting the cell concentration, and adding to the 96-we plate in a volume of 5000 cells per 90 μL. […]
4) After being cultured for 72 hours, adding 100 μL of the CTG reagent to each well, shaking for 2 minutes, and standing at the room temperature for 10 minutes, herein a whole process is protected from light.
5) Finally using Soft Max Pro5 software to read.

SH-SY5Y cells [2] = experiment: Cytotoxicity of RNAh-Biotin-quasar670-aspirin nanoparticles, CTG kit; format: cell-based
Experimental: Experiment purpose: an effect of a compound on proliferation of a target tumor cell line is researched.
Experiment design: the compound is diluted in 8 concentration gradients and sequentially added to the target tumor cell line and incubated for 72 hours, the CTG kit is used to detect the effect of the compound on the cell proliferation.

MCF-7 cells [3] = experiment: Cytotoxicity of RNAh-Bio-670-THP and RNAh-Bio-670-DNR nanoparticles, CTG; format: cell-based, human; conditions: MCF-7, 72 h, 200 nM
Experimental: 3) Diluting a sample to be tested with the culture medium on the next day, respectively adding 200 nM to each sample, herein each sample has 4 replicate wells for replication.
Samples to be tested: small molecular drug THP and RNAh-Bio-670-THP nanoparticles;
1) Except that it is the MCF-7 cells, the rest are the same as (III).

MCF-7 cells [4] = experiment: Cytotoxicity of DNAh-Bio-EGFRapt-Cy5-EPB nanoparticles, CellTiter 96 AQueous One Solution; format: cell-based, human
Experimental: (§1) 3) planting 90 μL/well of cell suspension into the 96-well plate, herein the number of cells per well in the plate is 2000;
(§2) 4) placing the planted cell plate in the incubator at 37 DEG C. and incubating overnight;
6) taking out the cell culture plate, and adding 10 μL/well of 10× concentration drug working solution to the corresponding wells of the cell culture plate, herein three replicate holes are made for each concentration, and the final drug action concentration is shown in the table below.
(§3) 7) placing the cell culture plate in the incubator and continuously incubating for 96 hours;
(§4) 8) placing the CellTiter 96@D AQueous One Solution reagent at the room temperature and thawing for 90 minutes or thawing in a water bath at 37 DEG C., and then equilibrating at the room temperature for 30 minutes;
(§5) 9) adding 20 μL/well of the CellTiter 96® AQueous One Solution reagent to the cell culture plate;
(§6) 10) placing the cell culture plate in the incubator at 37 DEG C. and continuously incubating for 3 hours;
(§7) 11) using the microplate reader to read a OD490 value of each well in the cell plate; and
12) data processing and analysis.
GraphPad Prism5.0 software is used to process data graphically. […] A calculation formula of the cell survival rate is as follows, the IC50 may be automatically calculated in the GraphPad Prism 5.0. […]

NCI-H1975 cells = experiment: as above; format: cell-based
Experimental: 2) adjusting the cell density to 2.22×10^4/mL with a growth medium:
as §1, §2
5) performing 3.16-fold gradient dilution on the compound at 9 concentration points;
as §3, §4, §5, §6, §7
12) data processing and analysis.
GraphPad Prism5.0 software is used to process data graphically. In order to calculate the IC50, “W”-shaped non-linear regression analysis is performed on the data to match a suitable dosage-effect curve. A calculation formula of the cell survival rate is as follows, the IC50 may be automatically calculated in the GraphPad Prism 5.0.
Cell survival rate (%)=(ODtest well−ODblank control)/(ODnegative control−ODblank control)×100%.

[5] = highest administration concentration 10 μM

Nc1c2c(nc3ccccc13)CCCC2 [Tacrine, tacrine] was tested, and the “cell proliferation rate (%)” value (SH-SY5Y cells [1]; 200 nM, 72 h) was 39.75%.
With N.N.[Cl][Pt][Cl] [Cisplatin] the IC50 (SH-SY5Y cells [1]; highest administration concentration 5 μM) was 0.51 µM, the “inhibition rate to the HL60 cells” value (HL60 cells; [5]) was 99.96% and the “inhibition rate to the MOLT4 cell proliferation” value (MOLT4 cells; maximum administration concentration 5 μm) was 99.94%. The “inhibition rate to the SH-SY5Y cells” value (SH-SY5Y cells [2]; [5]) was 99.81%.
Compound CC(=O)Oc1ccccc1C(=O)O [aspirin] has an IC50 (SH-SY5Y cells [2]; Homo sapiens, SH-SY5Y, 72 hours, read-out: IC50, SH-SY5Y cell proliferation) of 1430 µM, an inhibition at 5 µM (SH-SY5Y cells [2]; Homo sapiens, SH-SY5Y, administration concentration 5 μM, 72 hours, read-out: cell inhibition rate, SH-SY5Y cells) of 17.7% and an IC50 (SH-SY5Y cells [2]; Homo sapiens, SH-SY5Y, 72 h, CTG kit, read-out: IC50) of 1430 µM.
In the case of CN(Cc1cnc2nc(N)nc(N)c2n1)c1ccc(C(=O)N[C@@H](CCC(=O)O)C(=O)O)cc1 [Methotrexate (MTX)], the “cell survival rate (%)” value (MOLT4 cells; MOLT-4, 72 h, 200 nM) is reported as 2.88%.
With COc1cccc2c1C(=O)c1c(O)c3c(c(O)c1C2=O)C[C@@](O)(C(=O)CO)C[C@@H]3O[C@H]1C[C@H](N)[C@H](O[C@@H]2CCCCO2)[C@H](C)O1 [Pirarubicin (THP)] the “cell survival rate (%)” value (MCF-7 cells [3]) was 13.85%.
COc1cccc2c1C(=O)c1c(O)c3c(c(O)c1C2=O)C[C@@](O)(C(=O)CO)C[C@@H]3O[C@H]1C[C@H](N)[C@@H](O)[C@H](C)O1 [Epirubicin (EPB)] was tested, and the IC50 (HL60 cells; HL60, treatment time 72 h, CellTiter-Glo, read-out: IC50) was 0.301 µM.
With COc1cccc2c1C(=O)c1c(O)c3c(c(O)c1C2=O)C[C@@](O)(C(=O)CO)C[C@@H]3O[C@H]1C[C@H](N)[C@@H](O)[C@H](C)O1 [EPB, epirubicin] the IC50 (HL60 cells; Homo sapiens, HL-60, 72 hours, read-out: IC50, HL60 cell proliferation) was 0.0698 µM, the inhibition at 5 µM (HL60 cells; Homo sapiens, HL-60, concentration 5 μM, 72 hours, read-out: inhibition rate on HL60 cells) was 99.2% and the “toxicity to MCF-7 cells” value (MCF-7 cells [4]; 96 hours) was “toxic to the MCF-7 cells”. The IC50 (MCF-7 cells [4]; Homo sapiens, MCF7, MCF-7, 96 hours) was 0.0847 µM, the “toxicity to NCI-H1975 cells” value (NCI-H1975 cells; 96 hours) was “toxic to the NCI-H1975 cells” and the IC50 (NCI-H1975 cells; Homo sapiens, NCI-H1975, 96 hours) was 0.0306 µM.
